System: LNCaP-RANKL cells
Assay: Soft agar (anchorage-independent) colony formation, LNCaP-RANKL
Type: cell-based, human
Details: addition of OPG

Substance: osteoprotegerin [OPG]
- soft agar colony formation (tumorigenicity) of LNCaP-RANKL cells: attenuated

From patent publication US20130263297A1, “METHODS OF TREATING CANCER” (Cedars-Sinai Medical Center, priority 2010, published 2013)
